Measurements: ChEMBL document CHEMBL5352424, “Boosting caffeic acid performance as antioxidant and monoamine oxidase B/catechol-O-methyltransferase inhibitor” (Eur J Med Chem, 2022)
Calls of active or inactive are those of the source. No cut-off for these calls is given here.

Key:
[1] = target: T1, Amine oxidase [flavin-containing] A (Homo sapiens, UniProt P21397); test: Inhibition of human MAO-A using kynuramine as substrate at 10 uM incubated for 30 mins by spectrophotometry analysis relative to control; settings: 0.5 h
T1 sequence (P21397 whole entry): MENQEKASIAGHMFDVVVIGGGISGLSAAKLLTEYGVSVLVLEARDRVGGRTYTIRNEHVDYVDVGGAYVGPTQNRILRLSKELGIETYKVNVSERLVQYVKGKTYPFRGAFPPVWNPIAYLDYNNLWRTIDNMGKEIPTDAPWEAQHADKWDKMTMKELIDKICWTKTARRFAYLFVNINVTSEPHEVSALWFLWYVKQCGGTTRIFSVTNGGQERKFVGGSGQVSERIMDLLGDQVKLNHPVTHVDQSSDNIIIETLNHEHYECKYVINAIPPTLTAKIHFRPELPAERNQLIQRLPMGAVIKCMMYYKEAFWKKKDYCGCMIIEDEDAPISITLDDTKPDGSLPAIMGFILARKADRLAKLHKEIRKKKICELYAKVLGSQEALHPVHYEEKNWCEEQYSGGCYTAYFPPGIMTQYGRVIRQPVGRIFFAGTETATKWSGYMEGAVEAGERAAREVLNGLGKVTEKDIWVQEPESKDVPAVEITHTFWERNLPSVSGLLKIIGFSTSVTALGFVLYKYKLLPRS

SH-SY5Y [2] = test: Cytoprotective activity against t-BHP induced oxidative stress in retinoic acid and TPA-differentiated human SH-SY5Y cells assessed as increase in resorufin fluorescence at 10 uM pretreated for 30 mins followed by t-BHP stimulation and measured after 24 hrs by resazurin dye based analysis; assay type: functional, cell-based; settings: time 24.5 hrs
[3] = target: T2, Amine oxidase [flavin-containing] B (Homo sapiens, UniProt P27338); test: Inhibition of human MAO-B using kynuramine as substrate at 10 uM incubated for 30 mins by spectrophotometry analysis relative to control; settings: 0.5 h
T2 sequence (P27338 whole entry): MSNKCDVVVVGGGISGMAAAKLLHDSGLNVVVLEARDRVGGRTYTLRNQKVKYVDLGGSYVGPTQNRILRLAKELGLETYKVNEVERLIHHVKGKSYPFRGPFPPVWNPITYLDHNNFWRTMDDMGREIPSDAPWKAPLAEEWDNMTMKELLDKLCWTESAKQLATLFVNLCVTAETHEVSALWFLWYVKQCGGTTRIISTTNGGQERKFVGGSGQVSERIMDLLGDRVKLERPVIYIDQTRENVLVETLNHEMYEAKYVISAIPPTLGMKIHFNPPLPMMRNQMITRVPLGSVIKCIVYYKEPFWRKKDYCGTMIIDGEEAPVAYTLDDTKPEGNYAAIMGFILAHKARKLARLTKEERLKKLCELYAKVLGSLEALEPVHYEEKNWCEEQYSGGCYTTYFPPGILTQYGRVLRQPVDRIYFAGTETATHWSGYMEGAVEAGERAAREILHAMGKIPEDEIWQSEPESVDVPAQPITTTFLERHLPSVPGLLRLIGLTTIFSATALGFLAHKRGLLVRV

[4] = Antioxidant activity assessed as ORAC-FL index; assay type: functional
Rattus norvegicus = species on record: Rattus norvegicus; test: Selectivity index, ratio of IC50 for S-COMT in rat liver homogenates to IC50 for MB-COMT in rat brain homogenates; assay type: tissue-based
[5] = target: T3, Catechol O-methyltransferase (Rattus norvegicus) (UniProt P22734); test: Inhibition of S-COMT in rat liver homogenates using adrenaline as substrate and SAM as cofactor at 30 uM preincubated for 20 mins followed by substrate addition and measured after 5 mins relative to control; assay type: tissue-based; settings: time 25.0 min
T3 sequence (whole entry): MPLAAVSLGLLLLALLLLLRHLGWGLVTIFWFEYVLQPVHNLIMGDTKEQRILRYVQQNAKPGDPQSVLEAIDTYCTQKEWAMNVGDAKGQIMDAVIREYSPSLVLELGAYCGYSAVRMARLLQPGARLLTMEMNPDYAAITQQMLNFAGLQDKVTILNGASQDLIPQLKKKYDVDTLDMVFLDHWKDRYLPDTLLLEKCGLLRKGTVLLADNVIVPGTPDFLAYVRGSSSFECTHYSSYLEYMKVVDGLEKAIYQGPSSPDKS

SH-SY5Y [6] = test: Cytotoxicity against retinoic acid and TPA-differentiated human SH-SY5Y cells assessed as reduction in metabolic activity by measuring resazurin reduction at 10 uM incubated for 24 hrs by resazurin dye based assay relative to control; assay type: toxicity, cell-based; design: scale not given: the % may be the effect or the level left
SH-SY5Y [7] = test: Cytotoxicity against retinoic acid and TPA-differentiated human SH-SY5Y cells assessed as reduction in lysosomal activity by measuring neutral red dye uptake at 10 uM incubated for 24 hrs by neutral red dye based assay relative to control; assay type: toxicity, cell-based; design: scale not given: the % may be the effect or the level left
[8] = target: T4, Catechol O-methyltransferase (Rattus norvegicus, UniProt P22734); test: Inhibition of MB-COMT in rat brain homogenates using adrenaline as substrate and SAM as cofactor preincubated for 20 mins followed by substrate addition and measured after 5 mins; assay type: tissue-based
T4 sequence (P22734 whole entry): T3 sequence (whole entry)

[9] = target: T4, Catechol O-methyltransferase; test: Inhibition of MB-COMT in rat liver homogenates using adrenaline as substrate and SAM as cofactor preincubated for 20 mins followed by substrate addition and measured after 5 mins; assay type: tissue-based
[10] = Oxidation potential of compound at pH 7.3 by differential pulse voltammetry analysis; assay type: physicochemical
SH-SY5Y [11] = test: Cytotoxicity against retinoic acid and TPA-differentiated human SH-SY5Y cells assessed as reduction in lysosomal activity at 50 uM incubated for 24 hrs by neutral red dye based assay; assay type: toxicity, cell-based
SH-SY5Y [12] = test: Cytotoxicity against retinoic acid and TPA-differentiated human SH-SY5Y cells assessed as reduction in metabolic activity by measuring reduction in resorufin fluorescence at 10 to 50 uM incubated for 24 hrs by resazurin dye based assay; assay type: toxicity, cell-based; settings: dose 10-50 µM
SK-N-SH = test: Cytotoxicity against human SK-N-SH cells assessed as reduction in calcein fluorescence at 30 to 50 uM by calcein-AM assay; assay type: toxicity, cell-based; settings: dose 30-50 µM
SH-SY5Y [13] = test: Cytotoxicity against retinoic acid and TPA-differentiated human SH-SY5Y cells upto 50 uM incubated for 24 hrs by neutral red dye based assay; assay type: toxicity, cell-based
SH-SY5Y [14] = test: Cytotoxicity against retinoic acid and TPA-differentiated human SH-SY5Y cells upto 50 uM incubated for 24 hrs by resazurin dye based assay; assay type: toxicity, cell-based
[15] = target: T2, Amine oxidase [flavin-containing] B; test: Inhibition of human MAO-B using kynuramine as substrate incubated for 30 mins by spectrophotometry analysis
[16] = Retention time of compound at pH 2.6 by LC/UV analysis; assay type: physicochemical; settings: buffer
[17] = Chromatographic hydrophobicity index of compound at pH 2.6 by HPLC analysis; assay type: physicochemical
Homo sapiens = species on record: Homo sapiens; test: Selectivity index, ratio of IC50 for human MAO-A to IC50 for human MAO-B
SH-SY5Y [18] = test: Cytotoxicity against retinoic acid and TPA-differentiated human SH-SY5Y cells assessed as increase in intracellular ROS formation by measuring increase in DCF fluorescence at 10 to 50 uM incubated for 24 hrs by DCF fluorescence analysis; assay type: toxicity, cell-based; settings: dose 10-50 µM
[19] = target: T3, Catechol O-methyltransferase (Rattus norvegicus); test: Inhibition of MB-COMT in rat brain homogenates using adrenaline as substrate and SAM as cofactor at 30 uM preincubated for 20 mins followed by substrate addition and measured after 5 mins relative to control; assay type: tissue-based; settings: time 25.0 min
[20] = target: T3, Catechol O-methyltransferase (Rattus norvegicus); test: Inhibition of MB-COMT in rat liver homogenates using adrenaline as substrate and SAM as cofactor at 30 uM preincubated for 20 mins followed by substrate addition and measured after 5 mins relative to control; assay type: tissue-based; settings: time 25.0 min
SH-SY5Y [21] = test: Cytotoxicity against retinoic acid and TPA-differentiated human SH-SY5Y cells assessed as reduction in lysosomal activity by measuring neutral red dye internalization at 10 to 50 uM incubated for 24 hrs by neutral red dye based assay; assay type: toxicity, cell-based; settings: dose 10-50 µM

| SMILES | inhibition at 10 µM [1] | inhibition at 10 µM [3] | inhibition [5] | IC50 [8] | IC50 [9] | Ep [10] | IC50 [15] | Ratio IC50 (Homo sapiens) | Activity (SH-SY5Y [2]) | Activity index [4] | Ratio IC50 (Rattus norvegicus) | Activity (SH-SY5Y [6]) | Activity (SH-SY5Y [7]) | Activity (SH-SY5Y [11]) | Activity (SH-SY5Y [12]) | Activity (SH-SY5Y [21]) | also measured |
| --- | --- | --- | --- | --- | --- | --- | --- | --- | --- | --- | --- | --- | --- | --- | --- | --- | --- |
| C[C@H](NCc1ccc(OCc2cccc(F)c2)cc1)C(N)=O [SAFINAMIDE] | < 50% | – | – | – | – | – | – | – | – | – | – | – | – | – | – | – | – |
| O=C(/C=C/C=C/c1ccc(O)c(O)c1)Nc1ccccc1 | < 50% | < 50% | < 50% | 1.62 µM | 6.13 µM | 114 mV | – | – | Active | 4.1 | > 19 | > 85% | > 85% | Toxic | – | – | – |
| O=C(/C=C/C=C/c1ccc(O)c(O)c1)NCc1ccccc1 | < 50% | < 50% | < 50% | 1.48 µM | 4.27 µM | 129 mV | – | – | Active | 4 | > 20 | > 85% | > 85% | Toxic | – | – | – |
| O=C(/C=C/C=C/c1ccc(O)c(O)c1)NCCc1ccccc1 | < 50% | < 50% | < 50% | 1.32 µM | 3.64 µM | 124 mV | – | – | Active | 3.3 | > 22 | – | > 85% | Toxic | Non-Toxic | – | – |
| Cc1ccc(C(=O)c2cc(O)c(O)c([N+](=O)[O-])c2)cc1 [TOLCAPONE] | – | – | – | – | – | – | – | – | – | – | – | – | – | – | – | – | Activity (SK-N-SH): Non-Toxic; Activity (SH-SY5Y [13]): Non-Toxic; Activity (SH-SY5Y [14]): Non-Toxic |
| O=C(/C=C/C=C/c1ccc(O)c(O)c1)N1CCCCC1 | < 50% | – | < 50% | 1.65 µM | 3.84 µM | 113 mV | 2.5 µM | > 4 | Active | 4.3 | > 18 | > 85% | > 85% | Toxic | – | – | Retention_time [16]: 10.08 min; CHI [17]: 49.61; Activity (SH-SY5Y [18]): Non-Toxic |
| N#C/C(=C\C=C\c1ccc(O)c(O)c1)C(=O)NCCc1ccccc1 | < 50% | – | < 50% | 1.27 µM | 4 µM | 163 mV | 4.38 µM | > 2.3 | Active | 3 | > 24 | – | > 85% | Toxic | Non-Toxic | – | – |
| N#C/C(=C\C=C\c1ccc(O)c(O)c1)C(=O)NCc1ccccc1 [LS-104] | < 50% | – | < 50% | – | – | 174 mV | 1.15 µM | > 8.7 | Active | 2.8 | – | > 85% | > 85% | Toxic | – | – | inhibition [19]: < 50%; inhibition [20]: < 50% |

Now from value to compound, other results behind:

| inhibition at 10 µM [1] | inhibition at 10 µM [3] | inhibition [5] | IC50 [8] | IC50 [9] | Ep [10] | IC50 [15] | Ratio IC50 (Homo sapiens) | SMILES | Activity (SH-SY5Y [2]) | Activity index [4] | Ratio IC50 (Rattus norvegicus) | Activity (SH-SY5Y [6]) | Activity (SH-SY5Y [7]) | Activity (SH-SY5Y [11]) | Activity (SH-SY5Y [12]) | Activity (SH-SY5Y [21]) | also measured |
| --- | --- | --- | --- | --- | --- | --- | --- | --- | --- | --- | --- | --- | --- | --- | --- | --- | --- |
| < 50% | – | < 50% | 1.33 µM | 2.69 µM | 154 mV | 4.27 µM | > 2.3 | N#C/C(=C\C=C\c1ccc(O)c(O)c1)C(=O)N1CCCCC1 | Active | 3.5 | > 23 | > 85% | – | – | – | Non-Toxic | Retention_time [16]: 10.5 min; Activity (SK-N-SH): Non-Toxic; CHI [17]: 56.03 |
| < 50% | < 50% | < 50% | – | – | 129 mV | – | – | O=C(O)/C=C/C=C/c1ccc(O)c(O)c1 [DEMETHYLENATED PIPERIC ACID] | inactive | 5.5 | – | – | – | – | Non-Toxic | Non-Toxic | inhibition [19]: < 50%; Activity (SH-SY5Y [18]): Non-Toxic; inhibition [20]: < 50% |
| < 50% | < 50% | – | – | – | 168 mV | – | – | O=C(O)/C=C/c1ccc(O)c(O)c1 [CAFFEIC ACID] | – | 4.8 | – | – | – | – | Non-Toxic | Non-Toxic | – |
| < 50% | – | < 50% | 2.41 µM | 3.74 µM | 161 mV | 4.55 µM | > 2.2 | N#C/C(=C\C=C\c1ccc(O)c(O)c1)C(=O)Nc1ccccc1 | Active | 3.5 | > 12 | > 85% | > 85% | Toxic | – | – | – |
| < 50% | < 50% | < 50% | – | – | 144 mV | – | – | N#C/C(=C\C=C\c1ccc(O)c(O)c1)C(=O)O | inactive | 4.9 | – | – | – | – | Non-Toxic | Non-Toxic | inhibition [19]: < 50%; inhibition [20]: < 50% |
